# Key:
# [1] = biological target: T1, Albumin (Homo sapiens, UniProt P02768); test: Binding affinity to human serum albumin assessed as quenching of intrinsic fluorescence at 2.5 to 15 uM and 298 K by fluorescence spectroscopy; format: ADME; settings: isolated protein, dose 2.5-15 µM
# [2] = biological target: T1, Albumin; test: Binding affinity to human serum albumin assessed as Stem-Volmer quenching constant; format: ADME; settings: isolated protein
# [3] = tested on: Mycobacterium tuberculosis; test: Antitubercular activity against Mycobacterium tuberculosis H37Rv assessed as bacterial growth inhibition incubated for 28 days by agar dilution method; format: functional; settings: 672 h, time 28 day
# [4] = biological target: T1, Albumin; test: Binding affinity to human serum albumin at protein to compound molar ratio of 1:1 by fluorescence spectroscopy; format: ADME; settings: isolated protein
# [5] = biological target: T1, Albumin; test: Binding affinity to human serum albumin assessed as distance between the acceptor and donor by FRET assay; format: ADME; settings: isolated protein
# [6] = biological target: T1, Albumin; test: Binding affinity to human serum albumin assessed as critical distance with 50% energy transfer between protein and compound by FRET assay; format: ADME; settings: isolated protein
# [7] = tested on: Vero; test: Cytotoxicity against African green monkey Vero cells assessed as reduction in cell viability measured after 72 hrs by MTT assay; format: cell-based; settings: Chlorocebus sabaeus
# [8] = biological target: T1, Albumin; test: Binding affinity to human serum albumin assessed as binding constant; format: ADME; settings: isolated protein
# [9] = biological target: T1, Albumin; test: Binding affinity to human serum albumin assessed as quenching constant; format: ADME; settings: isolated protein
# T1 sequence (P02768 whole entry): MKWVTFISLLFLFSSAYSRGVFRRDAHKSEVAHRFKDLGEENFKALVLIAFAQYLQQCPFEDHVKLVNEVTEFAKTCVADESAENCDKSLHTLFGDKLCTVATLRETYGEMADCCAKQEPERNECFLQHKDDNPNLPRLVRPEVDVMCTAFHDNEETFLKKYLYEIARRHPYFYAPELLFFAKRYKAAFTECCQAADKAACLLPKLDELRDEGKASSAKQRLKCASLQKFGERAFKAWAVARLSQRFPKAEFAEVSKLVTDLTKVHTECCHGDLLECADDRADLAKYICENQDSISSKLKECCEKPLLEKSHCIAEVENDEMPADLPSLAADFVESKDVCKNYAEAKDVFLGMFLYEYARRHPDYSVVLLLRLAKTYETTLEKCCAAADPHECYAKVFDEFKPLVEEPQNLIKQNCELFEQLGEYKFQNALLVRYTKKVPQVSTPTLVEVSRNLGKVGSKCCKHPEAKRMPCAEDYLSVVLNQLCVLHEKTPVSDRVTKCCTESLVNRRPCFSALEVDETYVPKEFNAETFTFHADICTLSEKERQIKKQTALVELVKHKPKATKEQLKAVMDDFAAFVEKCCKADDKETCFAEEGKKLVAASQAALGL
Compound,Activity [1],KSV [2],MIC [3] [µM],Activity [4],Activity [5] [nm],Activity [6] [nm],IC50 [7] [µM],Kb [8],Kq [9]
NC(=O)c1ccc(-n2cc(CNC(=O)c3c[nH]c(-c4ccccc4)n3)nn2)cc1,Active,5.02 10^4L/mol,1.47,Active,2.09,1.49,198,2.58 10^3L/mol,8.36 10^12L/mol/s
COc1ccc(-n2cc(CNC(=O)c3c[nH]c(-c4ccccc4)n3)nn2)cc1,,,10.6,,,,388,,
O=C(NCc1cn(-c2ccc(O)cc2)nn1)c1c[nH]c(-c2ccccc2)n1,,,5.19,,,,281,,
Nc1ccc(-n2cc(CNC(=O)c3c[nH]c(-c4ccccc4)n3)nn2)cc1,Active,4.38 10^4L/mol,2.03,Active,2.36,1.81,237,2.16 10^3L/mol,8.11 10^12L/mol/s
Cc1ccc(-n2cc(CNC(=O)c3c[nH]c(-c4ccccc4)n3)nn2)cc1,,,19.5,,,,409,,
NNC(=O)c1ccncc1 [ISONIAZID],,,0.36,,,,> 456,,

# Reference: ChEMBL document CHEMBL4706667, “Click synthesis of 1,2,3-triazole based imidazoles: Antitubercular evaluation, molecular docking and HSA binding studies” (Bioorg Med Chem Lett, 2021)
